# Test results taken from ChEMBL document CHEMBL4507299, “Data for DCP probe PF-04554878” (2021).
# What was measured:
# [1] = tested on: Proto-oncogene tyrosine-protein kinase receptor Ret (Homo sapiens), P07949 [V804M]
# [2] = molecular target: NUAK family SNF1-like kinase 2 (Homo sapiens) (UniProt Q9H093)
# [3] = molecular target: Serine/threonine-protein kinase PLK4 (Homo sapiens) (UniProt O00444)
# [4] = molecular target: Megakaryocyte-associated tyrosine-protein kinase (Homo sapiens) (UniProt P42679)
# [5] = molecular target: Dual specificity tyrosine-phosphorylation-regulated kinase 2 (Homo sapiens) (UniProt Q92630)
# [6] = molecular target: Mitogen-activated protein kinase kinase kinase 7 (Homo sapiens) (UniProt O43318)
# [7] = molecular target: Activin receptor type-1-like (Homo sapiens) (UniProt P37023)
# [8] = tested on: Tyrosine-protein kinase ABL1 (Homo sapiens), P00519 [Q252H]
# [9] = molecular target: Tyrosine-protein kinase ZAP-70 (Homo sapiens) (UniProt P43403)
# [10] = molecular target: Serine/threonine-protein kinase mTOR (Homo sapiens) (UniProt P42345)
# [11] = tested on: Mast/stem cell growth factor receptor Kit (Homo sapiens), P10721 [V559D,T670I]
# [12] = molecular target: Receptor-type tyrosine-protein kinase FLT3 (Homo sapiens) (UniProt P36888)
# [13] = molecular target: Dual specificity protein kinase CLK1 (Homo sapiens, UniProt P49759)
# [14] = molecular target: Serine/threonine-protein kinase N2 (Homo sapiens) (UniProt Q16513)
# [15] = molecular target: Ribosomal protein S6 kinase alpha-1 (Homo sapiens) (UniProt Q15418)
# [16] = molecular target: Myosin light chain kinase, smooth muscle (Homo sapiens) (UniProt Q15746)
# [17] = molecular target: Serine/threonine-protein kinase B-raf (Homo sapiens) (UniProt P15056)
# [18] = molecular target: Mast/stem cell growth factor receptor Kit (Homo sapiens) (UniProt P10721)
# [19] = molecular target: RAC-beta serine/threonine-protein kinase (Homo sapiens) (UniProt P31751)
# [20] = tested on: Tyrosine-protein kinase ABL1 (Homo sapiens), P00519 [T315I]
# [21] = molecular target: GABA-A receptor; anion channel (Rattus norvegicus) (UniProt O09028+P15431+P18506+P18508+P19969+P20236+P23574+P23576+P28471+P28473+P30191+P62813+P63079+P63138+Q91ZM7+Q9ES14); settings: Compound concentration 10.0 uM
# [22] = molecular target: Mitogen-activated protein kinase 11 (Homo sapiens) (UniProt Q15759)
# [23] = molecular target: Serine/threonine-protein kinase tousled-like 2 (Homo sapiens) (UniProt Q86UE8)
# [24] = molecular target: Phosphatidylinositol 3-kinase catalytic subunit type 3 (Homo sapiens) (UniProt Q8NEB9)
# [25] = molecular target: Non-receptor tyrosine-protein kinase TYK2 (Homo sapiens) (UniProt P29597)
# [26] = molecular target: Membrane-associated tyrosine- and threonine-specific cdc2-inhibitory kinase (Homo sapiens) (UniProt Q99640)
# [27] = molecular target: Tyrosine-protein kinase Srms (Homo sapiens) (UniProt Q9H3Y6)
# [28] = molecular target: Dual specificity mitogen-activated protein kinase kinase 1 (Homo sapiens) (UniProt Q02750)
# [29] = molecular target: Histamine H1 receptor (Homo sapiens) (UniProt P35367); settings: Compound concentration 10.0 uM
# [30] = tested on: Mast/stem cell growth factor receptor Kit (Homo sapiens), P10721 [D816V]
# [31] = molecular target: Serine/threonine-protein kinase D3 (Homo sapiens) (UniProt O94806)
# [32] = molecular target: 5-hydroxytryptamine receptor 2C (Homo sapiens) (UniProt P28335); settings: Compound concentration 10.0 uM
# [33] = molecular target: Serine/threonine-protein kinase 32B (Homo sapiens) (UniProt Q9NY57)
# [34] = molecular target: Cyclin-dependent kinase 14 (Homo sapiens) (UniProt O94921)
# [35] = molecular target: Ephrin type-A receptor 4 (Homo sapiens) (UniProt P54764)
# [36] = tested on: Receptor-type tyrosine-protein kinase FLT3 (Homo sapiens), P36888 [UNDEFINED MUTATION]
# [37] = molecular target: Cyclin-dependent kinase 11A (Homo sapiens) (UniProt Q9UQ88)
# [38] = tested on: Tyrosine-protein kinase ABL1 (Homo sapiens), P00519 [F317I]
# [39] = tested on: Phosphatidylinositol 4,5-bisphosphate 3-kinase catalytic subunit alpha isoform (Homo sapiens), P42336 [Q546K]
# [40] = molecular target: Alpha-1D adrenergic receptor (Homo sapiens) (UniProt P25100); settings: Compound concentration 10.0 uM
# [41] = Compound concentration 100.0 nM
# [42] = Compound concentration 1000.0 nM
# RAC-beta serine/threonine-protein kinase (Homo sapiens), sequence (P31751 whole entry): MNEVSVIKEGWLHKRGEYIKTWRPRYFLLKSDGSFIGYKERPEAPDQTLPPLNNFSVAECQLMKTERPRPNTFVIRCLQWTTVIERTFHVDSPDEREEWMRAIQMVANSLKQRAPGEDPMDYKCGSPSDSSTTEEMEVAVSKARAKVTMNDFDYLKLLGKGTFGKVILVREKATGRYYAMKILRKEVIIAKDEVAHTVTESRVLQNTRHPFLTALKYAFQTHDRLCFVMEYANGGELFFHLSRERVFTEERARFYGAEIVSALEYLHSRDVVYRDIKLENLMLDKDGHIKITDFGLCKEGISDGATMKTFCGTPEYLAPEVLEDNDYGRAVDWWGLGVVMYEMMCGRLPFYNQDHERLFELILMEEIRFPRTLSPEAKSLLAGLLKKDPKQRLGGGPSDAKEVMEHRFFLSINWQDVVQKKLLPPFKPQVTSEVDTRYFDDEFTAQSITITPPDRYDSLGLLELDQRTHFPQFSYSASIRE
# Non-receptor tyrosine-protein kinase TYK2 (Homo sapiens), sequence (P29597 whole entry): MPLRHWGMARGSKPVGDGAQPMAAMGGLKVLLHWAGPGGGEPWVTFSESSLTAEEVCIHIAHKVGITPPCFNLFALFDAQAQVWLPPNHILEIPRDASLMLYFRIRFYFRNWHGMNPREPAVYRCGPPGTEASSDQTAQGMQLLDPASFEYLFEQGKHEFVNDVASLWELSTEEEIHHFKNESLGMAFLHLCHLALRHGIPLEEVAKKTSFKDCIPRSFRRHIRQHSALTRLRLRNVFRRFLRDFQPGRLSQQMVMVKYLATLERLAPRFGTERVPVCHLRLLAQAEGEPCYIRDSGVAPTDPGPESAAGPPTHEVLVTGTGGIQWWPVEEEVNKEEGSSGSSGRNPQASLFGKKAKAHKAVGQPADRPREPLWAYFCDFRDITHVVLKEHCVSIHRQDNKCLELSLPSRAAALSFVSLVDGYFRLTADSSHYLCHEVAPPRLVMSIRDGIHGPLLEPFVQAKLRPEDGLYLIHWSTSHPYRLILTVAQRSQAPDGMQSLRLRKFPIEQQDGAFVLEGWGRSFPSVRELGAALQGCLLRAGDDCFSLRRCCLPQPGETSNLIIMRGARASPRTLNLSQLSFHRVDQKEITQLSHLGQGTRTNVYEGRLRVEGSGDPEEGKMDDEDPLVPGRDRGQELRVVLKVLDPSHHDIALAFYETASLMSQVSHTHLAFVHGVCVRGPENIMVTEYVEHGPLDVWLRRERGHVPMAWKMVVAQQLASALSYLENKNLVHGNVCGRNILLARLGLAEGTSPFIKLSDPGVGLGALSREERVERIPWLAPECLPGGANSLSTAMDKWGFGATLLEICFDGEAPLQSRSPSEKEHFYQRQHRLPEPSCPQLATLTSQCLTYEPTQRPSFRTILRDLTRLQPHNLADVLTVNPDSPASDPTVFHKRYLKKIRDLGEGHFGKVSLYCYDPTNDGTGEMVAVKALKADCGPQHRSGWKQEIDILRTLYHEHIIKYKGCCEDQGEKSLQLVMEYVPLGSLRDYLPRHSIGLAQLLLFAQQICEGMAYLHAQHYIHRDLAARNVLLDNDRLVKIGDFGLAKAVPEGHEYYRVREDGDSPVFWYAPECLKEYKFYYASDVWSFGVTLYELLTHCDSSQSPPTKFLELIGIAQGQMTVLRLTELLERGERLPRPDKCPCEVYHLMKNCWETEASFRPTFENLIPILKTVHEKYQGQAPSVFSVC
# Megakaryocyte-associated tyrosine-protein kinase (Homo sapiens), sequence (P42679 whole entry): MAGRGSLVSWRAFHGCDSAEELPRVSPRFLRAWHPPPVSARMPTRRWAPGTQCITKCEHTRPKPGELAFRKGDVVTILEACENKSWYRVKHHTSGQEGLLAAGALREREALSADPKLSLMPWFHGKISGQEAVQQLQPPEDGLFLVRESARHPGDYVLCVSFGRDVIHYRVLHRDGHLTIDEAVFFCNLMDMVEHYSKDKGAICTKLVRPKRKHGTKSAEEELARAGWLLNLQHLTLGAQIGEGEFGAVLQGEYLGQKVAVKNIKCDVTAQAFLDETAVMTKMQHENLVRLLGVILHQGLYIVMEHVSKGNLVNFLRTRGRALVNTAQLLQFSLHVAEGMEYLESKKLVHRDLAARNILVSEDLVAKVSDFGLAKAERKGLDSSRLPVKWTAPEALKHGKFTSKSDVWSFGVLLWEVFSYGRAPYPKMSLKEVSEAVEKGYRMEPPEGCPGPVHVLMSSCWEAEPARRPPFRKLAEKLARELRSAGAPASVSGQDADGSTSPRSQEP
# Proto-oncogene tyrosine-protein kinase receptor Ret (Homo sapiens), P07949 [V804M], sequence (P07949 whole entry V804M): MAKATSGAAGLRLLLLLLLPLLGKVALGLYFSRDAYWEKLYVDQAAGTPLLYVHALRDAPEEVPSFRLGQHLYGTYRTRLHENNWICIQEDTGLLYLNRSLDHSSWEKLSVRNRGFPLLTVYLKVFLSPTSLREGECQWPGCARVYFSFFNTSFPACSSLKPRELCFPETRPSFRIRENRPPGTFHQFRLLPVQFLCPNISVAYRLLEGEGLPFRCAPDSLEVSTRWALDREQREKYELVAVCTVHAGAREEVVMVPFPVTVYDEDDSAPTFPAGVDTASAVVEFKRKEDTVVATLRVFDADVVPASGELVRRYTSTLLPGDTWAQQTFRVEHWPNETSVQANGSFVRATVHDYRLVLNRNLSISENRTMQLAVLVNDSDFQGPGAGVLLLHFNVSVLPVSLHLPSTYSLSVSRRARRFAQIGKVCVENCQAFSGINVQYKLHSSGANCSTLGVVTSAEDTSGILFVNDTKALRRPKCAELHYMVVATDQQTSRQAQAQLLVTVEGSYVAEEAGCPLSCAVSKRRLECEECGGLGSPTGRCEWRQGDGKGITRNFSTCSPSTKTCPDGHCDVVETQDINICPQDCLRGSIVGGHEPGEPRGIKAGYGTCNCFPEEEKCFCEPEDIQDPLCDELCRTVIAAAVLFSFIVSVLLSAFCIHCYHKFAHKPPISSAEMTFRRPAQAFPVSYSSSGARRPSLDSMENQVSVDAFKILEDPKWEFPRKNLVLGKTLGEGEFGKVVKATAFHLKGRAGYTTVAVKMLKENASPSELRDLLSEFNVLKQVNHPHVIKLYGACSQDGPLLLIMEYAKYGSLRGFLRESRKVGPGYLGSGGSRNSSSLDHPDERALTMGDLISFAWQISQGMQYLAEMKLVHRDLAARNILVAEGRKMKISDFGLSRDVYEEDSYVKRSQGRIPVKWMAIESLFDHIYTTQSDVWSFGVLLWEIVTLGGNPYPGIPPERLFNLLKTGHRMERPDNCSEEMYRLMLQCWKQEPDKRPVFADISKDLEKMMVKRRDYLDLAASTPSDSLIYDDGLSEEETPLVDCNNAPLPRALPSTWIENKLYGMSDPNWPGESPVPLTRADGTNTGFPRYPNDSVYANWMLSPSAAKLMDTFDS
# Activin receptor type-1-like (Homo sapiens), sequence (P37023 whole entry): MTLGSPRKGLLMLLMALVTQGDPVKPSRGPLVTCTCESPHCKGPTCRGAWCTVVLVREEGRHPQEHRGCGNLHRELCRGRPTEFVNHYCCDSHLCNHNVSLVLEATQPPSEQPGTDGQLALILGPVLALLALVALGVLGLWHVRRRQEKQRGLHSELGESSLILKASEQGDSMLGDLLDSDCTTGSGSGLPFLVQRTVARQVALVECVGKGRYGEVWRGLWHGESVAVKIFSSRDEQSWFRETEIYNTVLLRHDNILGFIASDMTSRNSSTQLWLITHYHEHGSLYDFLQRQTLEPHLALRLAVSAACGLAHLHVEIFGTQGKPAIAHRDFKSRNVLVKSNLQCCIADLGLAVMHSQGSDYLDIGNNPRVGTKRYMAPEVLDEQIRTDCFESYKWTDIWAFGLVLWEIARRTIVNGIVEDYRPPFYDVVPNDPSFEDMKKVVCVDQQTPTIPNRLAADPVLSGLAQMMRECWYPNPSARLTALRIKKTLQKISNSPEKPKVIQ
# Tyrosine-protein kinase Srms (Homo sapiens), sequence (Q9H3Y6 whole entry): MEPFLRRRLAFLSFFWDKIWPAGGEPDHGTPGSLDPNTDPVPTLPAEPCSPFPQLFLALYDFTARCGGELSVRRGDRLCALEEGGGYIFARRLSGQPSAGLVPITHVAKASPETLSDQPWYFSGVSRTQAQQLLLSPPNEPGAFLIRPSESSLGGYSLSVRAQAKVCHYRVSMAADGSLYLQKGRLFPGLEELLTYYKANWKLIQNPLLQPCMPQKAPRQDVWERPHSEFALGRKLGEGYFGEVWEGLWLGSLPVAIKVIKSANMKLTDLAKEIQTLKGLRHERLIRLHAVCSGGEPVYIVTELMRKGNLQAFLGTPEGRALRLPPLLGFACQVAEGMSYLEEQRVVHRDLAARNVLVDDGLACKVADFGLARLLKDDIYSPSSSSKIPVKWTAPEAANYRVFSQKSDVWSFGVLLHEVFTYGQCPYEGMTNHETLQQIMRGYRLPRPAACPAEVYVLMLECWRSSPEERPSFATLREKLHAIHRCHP
# Membrane-associated tyrosine- and threonine-specific cdc2-inhibitory kinase (Homo sapiens), sequence (Q99640 whole entry): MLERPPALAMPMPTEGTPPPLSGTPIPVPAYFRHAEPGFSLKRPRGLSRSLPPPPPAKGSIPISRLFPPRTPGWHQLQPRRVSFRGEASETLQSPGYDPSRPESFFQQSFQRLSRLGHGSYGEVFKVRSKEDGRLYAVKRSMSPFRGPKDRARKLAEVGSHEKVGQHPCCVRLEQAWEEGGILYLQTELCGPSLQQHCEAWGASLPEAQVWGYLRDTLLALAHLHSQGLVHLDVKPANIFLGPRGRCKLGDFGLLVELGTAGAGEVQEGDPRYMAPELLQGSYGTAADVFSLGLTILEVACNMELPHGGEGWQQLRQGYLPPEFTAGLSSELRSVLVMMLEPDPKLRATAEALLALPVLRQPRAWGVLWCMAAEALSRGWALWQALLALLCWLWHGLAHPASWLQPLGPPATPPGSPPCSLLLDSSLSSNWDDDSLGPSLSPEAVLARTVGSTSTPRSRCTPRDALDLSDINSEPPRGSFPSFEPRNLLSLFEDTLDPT
smiles,measurement,setting,value
CNC(=O)c1ccc(Nc2ncc(C(F)(F)F)c(NCc3nccnc3N(C)S(C)(=O)=O)n2)cc1 [DEFACTINIB],residual activity,[1]; [41],30%
same,residual activity,[2]; [41],53%
same,residual activity,[3]; [41],79%
same,residual activity,[4]; [41],37%
same,residual activity,[5]; [41],76%
same,residual activity,[6]; [41],57%
same,residual activity,[7]; [41],100%
same,residual activity,[8]; [41],98%
same,residual activity,[9]; [41],100%
same,residual activity,[10]; [41],100%
same,residual activity,[11]; [41],100%
same,residual activity,[12]; [41],46%
same,residual activity,[13]; [41],23%
same,residual activity,[14]; [41],37%
same,residual activity,[15]; [41],71%
same,residual activity,[16]; [41],75%
same,residual activity,[17]; [41],100%
same,residual activity,[18]; [41],84%
same,residual activity,[19]; [41],77%
same,residual activity,[20]; [41],93%
same,inhibition,[21],-7.85%
same,residual activity,[22]; [41],76%
same,residual activity,[23]; [41],90%
same,residual activity,[24]; [41],100%
same,residual activity,[25]; [41],87%
same,residual activity,[26]; [41],94%
same,residual activity,[27]; [41],96%
same,residual activity,[28]; [41],100%
same,inhibition,[29],-3.38%
same,residual activity,[30]; [41],80%
same,residual activity,[31]; [41],100%
same,inhibition,[32],16.9%
same,residual activity,[33]; [41],97%
same,residual activity,[34]; [41],88%
same,residual activity,[35]; [41],99%
same,residual activity,[36]; [41],14%
same,residual activity,[37]; [41],77%
same,residual activity,[38]; [41],100%
same,residual activity,[39]; [41],17%
same,inhibition,[40],4.13%
CN(c1ccnc(CNc2nc(Nc3ccc4c(c3)CC(=O)N4)ncc2C(F)(F)F)n1)S(C)(=O)=O [PF-00911705],residual activity,[1]; [42],31%
same,residual activity,[2]; [42],7.6%
same,residual activity,[3]; [42],50%
same,residual activity,[4]; [42],65%
same,residual activity,[5]; [42],37%
same,residual activity,[6]; [42],48%
same,residual activity,[7]; [42],100%
same,residual activity,[8]; [42],94%
same,residual activity,[9]; [42],61%
same,residual activity,[10]; [42],94%
same,residual activity,[11]; [42],100%
same,residual activity,[12]; [42],23%
same,residual activity,[13]; [42],4.4%
same,residual activity,[14]; [42],22%
same,residual activity,[15]; [42],68%
same,residual activity,[16]; [42],71%
same,residual activity,[17]; [42],82%
same,residual activity,[18]; [42],85%
same,residual activity,[19]; [42],82%
same,residual activity,[20]; [42],36%
same,inhibition,[21],29.5%
same,residual activity,[22]; [42],85%
same,residual activity,[23]; [42],100%
same,residual activity,[24]; [42],84%
same,residual activity,[25]; [42],59%
same,residual activity,[26]; [42],100%
same,residual activity,[27]; [42],62%
same,residual activity,[28]; [42],85%
same,inhibition,[29],21.4%
same,residual activity,[30]; [42],28%
same,residual activity,[31]; [42],100%
same,inhibition,[32],8.11%
same,residual activity,[33]; [42],100%
same,residual activity,[34]; [42],86%
same,residual activity,[35]; [42],90%
same,residual activity,[36]; [42],0.7%
same,residual activity,[37]; [42],94%
same,residual activity,[38]; [42],100%
same,residual activity,[39]; [42],93%
same,inhibition,[40],15.9%
